Reference: article PMC6804006, “Synthesis, Biological Activities and Docking Studies of Novel 4-(Arylaminomethyl)benzamide Derivatives as Potential Tyrosine Kinase Inhibitors” (Molecules, 2019)

Experiments:
[1] = system: K-562 (chronic myelogenous leukemia); test: MTT anti-proliferative assay, K-562; type: cell-based; conditions: Homo sapiens, K562, 48 h, 50% growth inhibition
Description: (§1) Each in vitro experiment was performed at least in triplicate, and the standard deviation of absorbance was less than 10% of the mean. For the in vitro assays, a stock solution (1% DMSO in the appropriate buffer with the tested compound diluted under sonication) was prepared from which several dilutions were made with the appropriate buffer.
(§2) Human cell lines were obtained from the Institute of Cytology, Russian Academy of Sciences. […] Cellular sensitivities to clofarabine and its lipid derivatives were measured with the MTT assay. Cells were plated in triplicate in 96-well plates (10^5 cells/well for suspended cell cultures and 5 × 10^3 cells/well for monolayer cultures); on the same day (suspended cell cultures) or on the following day (monolayer cultures), compounds were added at the appropriate dilutions. Plates were incubated under standard conditions for 48 h. Thereafter, 10 μL of MTT (Sigma) in phosphate-buffered saline (5 mg/mL) was added. The plates were incubated for an additional 4 h, and 150 μL of dimethyl sulfoxide (DMSO) was added to dissolve the formazan crystals. The optical density was read on a HALO MPR-95 Microplate Reader (Dynamica Scientific Ltd., Australia) at 570 nm. The antiproliferative effects were determined as degrees of inhibition of tumor cells (%).

[2] = system: HL-60 (promyelocytic leukemia); test: MTT anti-proliferative assay, HL-60; type: cell-based, human; conditions: Homo sapiens, HL-60, 48 h, 50% growth inhibition
Description: as §1, §2

[3] = system: MCF-7 (breast adenocarcinoma); test: MTT anti-proliferative assay, MCF-7; type: cell-based; conditions: Homo sapiens, MCF7, 48 h, 50% growth inhibition
Description: as §1, §2

HeLa (cervix carcinoma) = test: MTT anti-proliferative assay, HeLa; type: cell-based; conditions: Homo sapiens, 48 h, 50% growth inhibition
Description: as §1, §2

A549 (lung carcinoma) = test: MTT anti-proliferative assay, A-549; type: cell-based; conditions: Homo sapiens, 48 h, 50% growth inhibition
Description: as §1, §2

[4] = system: OKP-GS (carcinoma of the kidney); test: MTT anti-proliferative assay, OKP-GS; type: cell-based; conditions: Homo sapiens, 48 h, 50% growth inhibition
Description: as §1, §2

EGFR = molecular target: T1, EGFR (Homo sapiens, UniProt P00533); test: ADP-Glo kinase inhibitory assay, EGFR; type: biochemical; conditions: read-out: % Inhibition at 10 nM, EGFR
T1 construct: purchased Promega
T1 sequence (P00533 25-1210): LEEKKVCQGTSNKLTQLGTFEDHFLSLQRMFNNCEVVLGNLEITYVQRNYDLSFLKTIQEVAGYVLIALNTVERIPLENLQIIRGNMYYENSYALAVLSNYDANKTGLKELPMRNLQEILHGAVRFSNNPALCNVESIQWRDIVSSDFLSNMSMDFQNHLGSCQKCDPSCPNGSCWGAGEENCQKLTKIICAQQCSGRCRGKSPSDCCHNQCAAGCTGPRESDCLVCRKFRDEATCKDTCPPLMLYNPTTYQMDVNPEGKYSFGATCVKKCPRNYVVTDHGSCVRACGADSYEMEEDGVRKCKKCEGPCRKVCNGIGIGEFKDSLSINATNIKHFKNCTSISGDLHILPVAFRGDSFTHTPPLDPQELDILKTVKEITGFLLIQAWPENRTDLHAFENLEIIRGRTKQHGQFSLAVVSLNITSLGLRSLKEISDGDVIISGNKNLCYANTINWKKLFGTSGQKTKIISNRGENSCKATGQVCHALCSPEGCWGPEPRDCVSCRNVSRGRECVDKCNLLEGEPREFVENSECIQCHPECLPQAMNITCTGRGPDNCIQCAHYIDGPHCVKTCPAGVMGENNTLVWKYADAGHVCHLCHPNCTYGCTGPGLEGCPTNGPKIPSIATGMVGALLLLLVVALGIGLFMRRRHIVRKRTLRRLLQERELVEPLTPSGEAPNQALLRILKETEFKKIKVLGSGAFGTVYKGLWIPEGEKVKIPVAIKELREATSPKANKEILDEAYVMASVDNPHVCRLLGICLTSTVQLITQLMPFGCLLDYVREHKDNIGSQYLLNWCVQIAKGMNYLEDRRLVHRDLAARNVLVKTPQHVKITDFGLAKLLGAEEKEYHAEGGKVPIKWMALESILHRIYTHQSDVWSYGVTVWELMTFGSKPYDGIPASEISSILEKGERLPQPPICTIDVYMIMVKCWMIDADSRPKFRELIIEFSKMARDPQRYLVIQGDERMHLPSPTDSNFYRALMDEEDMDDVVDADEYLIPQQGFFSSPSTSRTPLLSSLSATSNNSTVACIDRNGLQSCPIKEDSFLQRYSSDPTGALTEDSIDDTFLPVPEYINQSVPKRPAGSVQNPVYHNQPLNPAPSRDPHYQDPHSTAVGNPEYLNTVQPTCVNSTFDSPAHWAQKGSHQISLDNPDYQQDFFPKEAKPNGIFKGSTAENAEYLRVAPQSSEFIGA
Description: (§3) We investigated the kinase selectivity of targeted compounds against eight receptor tyrosine kinases including EGFR (epidermal growth factor receptor), HER-2 and HER4 (human epidermal growth factor receptor), IGF1R (insulin like growth factor 1 receptor), InsR (gene insulin receptor), KDR (kinase insert domain receptor), and PDGFRa and PDGFRb (platelet-derived growth factor receptors). The assay was performed using the Kinase-Glo Plus luminescence kinase assay kit (TK-1+ADP-Glo™, Promega, San Diego, CA, USA). It measures kinase activity by quantitating the amount of ATP remaining in solution following a kinase reaction.
(§4) The assay was performed using a Kinase Selectivity Profiling System (TK-1+ADP-Glo™ Assay and TK-2+ADP-Glo™ Assay, Promega), where the kinase activity was measured by quantifying the amount of ADP produced during a kinase reaction. The assay is performed in two steps; firstly, after the kinase reaction, an equal volume of ADP-Glo™ Reagent is added to terminate the kinase reaction and deplete the remaining ATP. Secondly, the Kinase Detection Reagent is added to simultaneously convert ADP to ATP and allow the newly synthesized ATP to be measured using a luciferase/luciferin reaction. The luminescent signal generated is proportional to the ADP concentration produced and is correlated with kinase activity. Our compounds were diluted with kinase buffer (5% DMSO), and 1 μL of the dilution was added to a 5-μL reaction so that the final concentration of DMSO was 1% in all of reactions. All of the enzymatic reactions were conducted at 23 °C for 60 min. The 5-μL reaction mixture contained 1µL of the compound solution, 2µL of the enzyme solution, and 2 µL of kinase substrate. After the enzymatic reaction, 5 µL of ADP-Glo™ Reagent (Promega, USA) was added to each reaction, and the plate was incubated for 40 min at 23 °C. Then, 10 µL of Kinase Detection Reagent (Promega, USA) was added to each reaction, and the plate was incubated for 30 min at 23 °C. Luminescence signal was measured using an Infinite M 200 plate reader (Tecan, Switzerland).
(§5) Kinase activity assays were performed in duplicate at each concentration. The luminescence data were analyzed using the computer software, Magellan™. The difference between luminescence intensities in the absence of Kinase (Lut) and in the presence of Kinase (Luc) was defined as 100% activity (Lut − Luc).

HER-2 = molecular target: T2, HER-2 (Homo sapiens, UniProt P04626); test: ADP-Glo kinase inhibitory assay, HER-2; type: biochemical; conditions: read-out: % Inhibition at 10 nM, HER-2
T2 construct: purchased Promega
T2 sequence (P04626 23-1255): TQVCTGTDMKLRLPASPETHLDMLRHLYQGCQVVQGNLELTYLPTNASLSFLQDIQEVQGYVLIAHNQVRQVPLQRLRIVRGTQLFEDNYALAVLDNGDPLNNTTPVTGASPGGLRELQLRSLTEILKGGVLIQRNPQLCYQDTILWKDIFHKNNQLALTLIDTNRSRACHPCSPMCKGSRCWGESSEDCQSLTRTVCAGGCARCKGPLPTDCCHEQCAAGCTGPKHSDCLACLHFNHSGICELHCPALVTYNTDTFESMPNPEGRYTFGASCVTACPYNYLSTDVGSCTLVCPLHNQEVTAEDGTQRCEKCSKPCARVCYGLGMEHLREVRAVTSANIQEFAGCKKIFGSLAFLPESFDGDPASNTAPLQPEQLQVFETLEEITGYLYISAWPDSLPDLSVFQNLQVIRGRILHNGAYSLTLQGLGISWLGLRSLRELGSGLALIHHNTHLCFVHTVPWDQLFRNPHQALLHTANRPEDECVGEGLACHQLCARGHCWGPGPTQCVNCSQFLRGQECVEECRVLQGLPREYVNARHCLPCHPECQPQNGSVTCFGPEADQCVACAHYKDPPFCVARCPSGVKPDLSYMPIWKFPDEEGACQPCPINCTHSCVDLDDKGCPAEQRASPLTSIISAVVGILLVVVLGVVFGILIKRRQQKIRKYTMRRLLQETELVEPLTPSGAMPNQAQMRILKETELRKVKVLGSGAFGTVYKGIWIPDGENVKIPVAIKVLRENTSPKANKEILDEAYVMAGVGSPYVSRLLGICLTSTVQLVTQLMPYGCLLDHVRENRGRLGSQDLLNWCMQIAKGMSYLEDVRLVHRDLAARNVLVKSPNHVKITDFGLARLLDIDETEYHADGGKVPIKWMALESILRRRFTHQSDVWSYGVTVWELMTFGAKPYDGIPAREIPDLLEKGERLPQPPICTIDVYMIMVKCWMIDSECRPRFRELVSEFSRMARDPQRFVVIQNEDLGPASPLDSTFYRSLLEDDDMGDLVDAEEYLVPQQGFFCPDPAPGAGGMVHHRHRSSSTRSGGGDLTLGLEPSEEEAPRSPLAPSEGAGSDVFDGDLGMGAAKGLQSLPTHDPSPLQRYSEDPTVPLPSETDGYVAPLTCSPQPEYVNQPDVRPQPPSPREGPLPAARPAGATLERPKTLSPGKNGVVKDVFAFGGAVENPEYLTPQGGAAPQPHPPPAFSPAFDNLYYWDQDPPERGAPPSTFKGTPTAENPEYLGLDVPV
Description: as §3, §4, §5

HER-4 = molecular target: T3, HER-4 (Homo sapiens, UniProt Q15303); test: ADP-Glo kinase inhibitory assay, HER-4; type: biochemical; conditions: for inhibition at 0.01 µM: read-out: % Inhibition at 10 nM, HER-4
T3 construct: purchased Promega
Description: as §3, §4, §5

IGF1R = molecular target: T4, IGF1R (Homo sapiens, UniProt P08069); test: ADP-Glo kinase inhibitory assay, IGF1R; type: biochemical; conditions: read-out: % Inhibition at 10 nM, IGF1R
T4 construct: purchased Promega
T4 sequence (P08069 31-1367): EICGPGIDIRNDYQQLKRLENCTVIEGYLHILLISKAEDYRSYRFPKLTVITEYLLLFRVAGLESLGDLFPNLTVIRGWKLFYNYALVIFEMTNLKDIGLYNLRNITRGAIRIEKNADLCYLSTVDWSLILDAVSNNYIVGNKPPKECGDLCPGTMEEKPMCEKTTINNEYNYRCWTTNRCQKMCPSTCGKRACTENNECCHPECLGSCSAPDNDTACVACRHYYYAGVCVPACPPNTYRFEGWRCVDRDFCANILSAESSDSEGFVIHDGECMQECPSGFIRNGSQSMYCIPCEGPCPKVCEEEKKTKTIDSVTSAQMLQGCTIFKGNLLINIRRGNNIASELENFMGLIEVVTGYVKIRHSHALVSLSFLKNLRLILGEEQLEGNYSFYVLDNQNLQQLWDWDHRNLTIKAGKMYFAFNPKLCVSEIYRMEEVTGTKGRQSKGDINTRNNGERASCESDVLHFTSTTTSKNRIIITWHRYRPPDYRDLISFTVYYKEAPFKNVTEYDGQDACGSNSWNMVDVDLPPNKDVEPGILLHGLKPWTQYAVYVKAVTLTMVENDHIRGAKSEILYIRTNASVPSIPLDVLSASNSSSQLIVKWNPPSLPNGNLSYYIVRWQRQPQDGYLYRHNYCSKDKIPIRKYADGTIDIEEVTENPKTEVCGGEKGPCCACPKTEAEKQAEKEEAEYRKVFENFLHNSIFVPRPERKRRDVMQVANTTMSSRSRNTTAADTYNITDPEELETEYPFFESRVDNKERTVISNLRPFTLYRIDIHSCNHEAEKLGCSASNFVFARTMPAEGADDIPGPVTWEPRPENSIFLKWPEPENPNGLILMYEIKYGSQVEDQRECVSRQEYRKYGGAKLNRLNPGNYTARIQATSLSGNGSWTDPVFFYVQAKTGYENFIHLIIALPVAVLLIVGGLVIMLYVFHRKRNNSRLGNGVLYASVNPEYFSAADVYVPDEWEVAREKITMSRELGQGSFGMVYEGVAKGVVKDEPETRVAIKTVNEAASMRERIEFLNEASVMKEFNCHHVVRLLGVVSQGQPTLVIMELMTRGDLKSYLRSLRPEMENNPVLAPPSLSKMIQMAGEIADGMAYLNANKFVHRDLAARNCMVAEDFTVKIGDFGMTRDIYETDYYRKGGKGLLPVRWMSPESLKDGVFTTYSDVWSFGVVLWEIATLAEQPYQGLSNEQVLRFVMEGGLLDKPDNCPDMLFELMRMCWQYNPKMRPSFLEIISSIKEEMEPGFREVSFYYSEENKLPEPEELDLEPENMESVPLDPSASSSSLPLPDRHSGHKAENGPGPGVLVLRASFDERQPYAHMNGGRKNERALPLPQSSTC
Description: as §3, §4, §5

InsR = molecular target: T5, InsR (Homo sapiens, UniProt P06213); test: ADP-Glo kinase inhibitory assay, InsR; type: biochemical; conditions: for inhibition at 0.01 µM: read-out: % Inhibition at 10 nM, InsR; for selectivity for the gene insulin receptor, in words: 10 nM, panel of eight receptor tyrosine kinases
T5 construct: purchased Promega
T5 sequence (P06213 28-1382): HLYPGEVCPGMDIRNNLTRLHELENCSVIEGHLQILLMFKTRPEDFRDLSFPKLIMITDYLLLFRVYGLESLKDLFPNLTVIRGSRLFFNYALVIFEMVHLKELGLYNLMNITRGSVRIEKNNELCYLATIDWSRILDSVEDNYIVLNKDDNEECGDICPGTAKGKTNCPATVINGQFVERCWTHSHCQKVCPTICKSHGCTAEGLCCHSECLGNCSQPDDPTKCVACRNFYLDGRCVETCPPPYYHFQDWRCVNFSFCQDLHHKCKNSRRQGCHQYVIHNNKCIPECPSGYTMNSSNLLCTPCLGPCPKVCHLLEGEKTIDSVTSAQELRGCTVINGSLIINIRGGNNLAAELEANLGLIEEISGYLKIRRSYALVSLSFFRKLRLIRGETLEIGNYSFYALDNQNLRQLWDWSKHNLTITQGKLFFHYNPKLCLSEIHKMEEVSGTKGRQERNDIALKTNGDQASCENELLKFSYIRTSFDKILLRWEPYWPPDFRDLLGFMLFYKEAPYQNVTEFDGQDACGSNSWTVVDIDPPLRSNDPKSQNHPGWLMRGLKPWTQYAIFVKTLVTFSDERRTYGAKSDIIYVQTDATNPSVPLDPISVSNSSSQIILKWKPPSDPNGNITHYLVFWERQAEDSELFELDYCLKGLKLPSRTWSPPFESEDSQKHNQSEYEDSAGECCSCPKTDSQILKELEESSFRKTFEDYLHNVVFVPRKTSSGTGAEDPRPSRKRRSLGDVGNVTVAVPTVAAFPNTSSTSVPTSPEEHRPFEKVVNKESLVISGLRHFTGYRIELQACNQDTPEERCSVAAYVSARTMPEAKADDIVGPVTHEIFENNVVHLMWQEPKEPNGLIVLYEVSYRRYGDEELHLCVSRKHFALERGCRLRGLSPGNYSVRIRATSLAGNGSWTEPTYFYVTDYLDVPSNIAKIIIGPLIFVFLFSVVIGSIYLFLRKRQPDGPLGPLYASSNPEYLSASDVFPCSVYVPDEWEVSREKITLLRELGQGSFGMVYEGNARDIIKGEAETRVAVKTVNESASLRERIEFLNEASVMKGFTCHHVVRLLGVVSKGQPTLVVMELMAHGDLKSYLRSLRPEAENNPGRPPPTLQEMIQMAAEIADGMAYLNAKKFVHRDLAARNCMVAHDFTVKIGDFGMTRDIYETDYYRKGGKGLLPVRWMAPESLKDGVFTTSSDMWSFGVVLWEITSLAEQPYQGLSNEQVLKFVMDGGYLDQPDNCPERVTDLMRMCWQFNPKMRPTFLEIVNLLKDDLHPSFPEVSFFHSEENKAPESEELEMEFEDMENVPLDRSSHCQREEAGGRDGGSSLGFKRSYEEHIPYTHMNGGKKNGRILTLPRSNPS
Description: as §3, §4, §5

KDR (VEGFR2) = molecular target: T6, KDR (VEGFR2) (Homo sapiens, UniProt P35968); test: ADP-Glo kinase inhibitory assay, KDR; type: biochemical; conditions: 10 nM
T6 construct: purchased Promega
Description: as §3
Vascular endothelial growth factor receptor 2 (VEGFR2), also called kinase insert domain receptor (KDR), is a tyrosine kinase receptor for VEGFs that plays a central role in tumor angiogenesis; therefore, the inhibition of VEGFR2 is a promising therapeutic strategy for inhibiting angiogenesis and tumor growth.
as §4, §5

PDGFRa = molecular target: T7, PDGFRa (Homo sapiens, UniProt P16234); test: ADP-Glo kinase inhibitory assay, PDGFRa; type: biochemical; conditions: read-out: % Inhibition at 10 nM, PDGFRa
T7 construct: purchased Promega
Description: as §3, §4, §5

PDGFRb = molecular target: T8, PDGFRb (Homo sapiens, UniProt P09619); test: ADP-Glo kinase inhibitory assay, PDGFRb; type: biochemical; conditions: read-out: % Inhibition at 10 nM, PDGFRb
T8 construct: purchased Promega
Description: as §3, §4, §5

[5] = system: RPMI 1788 (B lymphocyte, human normal cells); test: MTT assay on normal cells RPMI 1788; type: cell-based; conditions: MTT 48 h
Description: as §1
Human cell lines were obtained from the Institute of Cytology, Russian Academy of Sciences. The cell lines studied were maintained in RPMI 1640 medium (AppliChem, Darmstadt, Germany) supplemented with 20% (HL-60, RPMI 1788) fetal calf serum (HyClone, Cramlington, UK), in DMEM (A 549) and Eagle’s MEM (AppliChem) (MCF7, HeLa) with 10% fetal calf serum (HyClone). Cells were cultivated at 37 °C in a humidified atmosphere of 5% CO2. Cellular sensitivities to clofarabine and its lipid derivatives were measured with the MTT assay. Cells were plated in triplicate in 96-well plates (10^5 cells/well for suspended cell cultures and 5 × 10^3 cells/well for monolayer cultures); on the same day (suspended cell cultures) or on the following day (monolayer cultures), compounds were added at the appropriate dilutions. Plates were incubated under standard conditions for 48 h. Thereafter, 10 μL of MTT (Sigma) in phosphate-buffered saline (5 mg/mL) was added. The plates were incubated for an additional 4 h, and 150 μL of dimethyl sulfoxide (DMSO) was added to dissolve the formazan crystals. The optical density was read on a HALO MPR-95 Microplate Reader (Dynamica Scientific Ltd., Australia) at 570 nm. The antiproliferative effects were determined as degrees of inhibition of tumor cells (%).

SMILES	IC50 [1] [µM]	IC50 [2] [µM]	IC50 [3] [µM]	IC50 (HeLa (cervix carcinoma)) [µM]	IC50 (A549 (lung carcinoma)) [µM]	IC50 [4] [µM]	inhibition at 0.01 µM (EGFR) [%]	inhibition at 0.01 µM (HER-2) [%]	inhibitory activity in relation to HER-4, in words (HER-4; 10 nM, compared with imatinib)	inhibition at 0.01 µM (HER-4) [%]	inhibition at 0.01 µM (IGF1R) [%]	inhibition at 0.01 µM (InsR) [%]	inhibition at 0.01 µM (KDR (VEGFR2)) [%]	inhibition at 0.01 µM (PDGFRa) [%]	inhibition at 0.01 µM (PDGFRb) [%]	melting point [°C]	inhibition at 100 µM [5] [%]	selectivity for the gene insulin receptor, in words (InsR)
Cc1cn(-c2cc(NC(=O)c3ccc(CN4CCN(C(=O)c5cccnc5)CC4)cc3)cc(C(F)(F)F)c2)cn1 [Compound 28l]	4.5	53.5	77	> 100	> 100	> 100	0	0	comparable to imatinib	51	0	0	17	0	7	96 to 100	–	–
Cc1cn(-c2cc(NCc3ccc(C(=O)Nc4cc(-n5cnc(C)c5)cc(C(F)(F)F)c4)cc3)cc(C(F)(F)F)c2)cn1 [Compound 8, N-(3-(4-methyl-1H-imidazol-1-yl)-5-(trifluoromethyl)phenyl)-4-(((3-(4-methyl-1H-imidazol-1-yl)-5-(trifluoromethyl)phenyl)amino)methyl)benzamide]	–	–	9.5	87	85	> 100	–	–	–	–	–	–	–	–	–	200 to 202	19.3	–
Cc1cn(-c2cc(NC(=O)c3ccc(C)c(Nc4nccc(-c5cccnc5)n4)c3)cc(C(F)(F)F)c2)cn1 [Nilotinib, reference compound]	< 0.1	55	–	–	–	55	–	–	–	–	–	–	–	–	–	–	< 0.1	–
Cc1cn(-c2cc(NC(=O)c3ccc(CNc4cc([N+](=O)[O-])ccc4C)cc3)cc(C(F)(F)F)c2)cn1 [Compound 9, N-(3-(4-methyl-1H-imidazol-1-yl)-5-(trifluoromethyl)phenyl)-4-(((2-methyl-5-nitrophenyl)amino)methyl)benzamide]	51	57	> 100	–	> 100	> 100	–	–	–	–	–	–	–	–	–	113 to 115	–	–
Cc1cn(-c2cc(NC(=O)c3ccc(CCl)cc3)cc(C(F)(F)F)c2)cn1 [Compound 5, 4-(Chloromethyl)-N-(3-(4-methyl-1H-imidazol-1-yl)-5-(trifluoromethyl)phenyl)benzamide]	69	45	54	51.8	53.5	70	0	0	–	0	0	57	0	0	0	–	< 0.1	high selectivity
CNC(=O)c1cc(Oc2ccc(NC(=O)Nc3ccc(Cl)c(C(F)(F)F)c3)cc2)ccn1 [Sorafenib, reference compound]	–	–	55	–	58	51	–	–	–	–	–	–	–	–	–	–	–	–
CCOC(=O)CCC(NC(=O)c1ccc(CNc2cc(-n3cnc(C)c3)cc(C(F)(F)F)c2)cc1)C(=O)OCC (stereo not shown) [Compound 14, Diethyl(4-(((3-(4-methyl-1H-imidazol-1-yl)-5-(trifluoromethyl)phenyl)amino)methyl)benzoyl)glutamate]	50	45	–	–	–	–	0	0	–	0	0	23	0	0	0	125 to 127	10.4	high selectivity
CCOC(=O)CC[C@H](NC(=O)c1ccc(CNc2nccc(-c3cccnc3)n2)cc1)C(=O)OCC [Compound 23, Diethyl (4-(((4-(pyridin-3-yl)pyrimidin-2-yl)amino)methyl)benzoyl)glutamate]	66	49	–	–	–	–	0	0	–	12	1	49	0	0	0	130 to 132	11.5	–
Cc1cn(-c2cc(NC(=O)c3ccc(CN4CCN(C(=O)c5ccccc5F)CC4)cc3)cc(C(F)(F)F)c2)cn1 [Compound 28j, 4-{[4-(2-Fluorobenzoyl)piperazin-1-yl]methyl}-N-[3-(4-methyl-1H-imidazol-1-yl)-5-(trifluoromethyl)phenyl]benzamide]	6.9	30.6	71	–	> 100	–	0	0	–	0	0	50	0	8	2	106 to 109	6.44	high selectivity
